Test results taken from patent US12532884B2, “Fungicidal compositions” (SYNGENTA CROP PROTECTION AG, priority 2020, dated 2026).

Tests used:
[1] = tested on: Glomerella lagenarium syn. Colletotrichum lagenarium; assay: Example C4: mixtures against Glomerella lagenarium syn. Colletotrichum lagenarium (anthracnose), liquid culture; assay type: cell-based; conditions: single component; for inhibition at 0.3 ppm / inhibition at 0.1 ppm: Colletotrichum orbiculare
Source text: (§1) Certain mixture compositions comprising a compound of formula (I) described above may show a synergistic effect. This occurs whenever the action of an active ingredient combination is greater than the sum of the actions of the individual components. The action to be expected E for a given active ingredient combination obeys the so-called COLBY formula and can be calculated as follows (COLBY, S. R. “Calculating synergistic and antagonistic responses of herbicide combination”. Weeds, Vol. 15, pages 20-22; 1967): • ppm=milligrams of active ingredient (=a.i.) per liter of spray mixture • X=% action by active ingredient A) using p ppm of active ingredient • Y=% action by active ingredient B) using q ppm of active ingredient.
(§2) According to COLBY, the expected (additive) action of active ingredients A)+B) using p+q ppm of active ingredient is:
(§3) If the action actually observed (O) is greater than the expected action (E), then the action of the combination is super-additive, i.e. there is a synergistic effect. In mathematical terms, synergism corresponds to a positive value for the difference of (O-E). In the case of purely complementary addition of activities (expected activity), said difference (O-E) is zero. A negative value of said difference (O-E) signals a loss of activity compared to the expected activity.
(§4) Mycelia fragments or conidia suspensions of a fungus prepared either freshly from liquid cultures of the fungus or from cryogenic storage, are directly mixed into nutrient broth. DMSO solutions of the test compound (max. 10 mg/mL) are diluted with 0.025% Tween20 by a factor of 50 and 10 μl of this solution is pipetted into a microtiter plate (96-well format). The nutrient broth containing the fungal spores/mycelia fragments is then added to give an end concentration of the tested compound. The test plates are incubated in the dark at 24° C. and 96% relative humidity. The inhibition of fungal growth is determined photometrically after 2 to 7 days, depending on the pathosystem, and percent antifungal activity relative to the untreated check is calculated.
(§5) Conidia of the fungus from cryogenic storage were directly mixed into nutrient broth (PDB potato dextrose broth). A DMSO solution of the test compounds was placed into a microtiter plate (96-well format) and the nutrient broth containing the fungal spores was added to it.
The following mixture compositions at the reported concentration (in ppm) in tables C4-3 and C4-4 gave the following disease control in this test (Glomerella lagenarium syn. Colletotrichum lagenarium). Fungicidal activity was evaluated on a 100-0 scale (100=no disease growth; 0=well completely covered by mycelium).

Septoria tritici = assay: Example C2: mixtures against Septoria tritici (leaf blotch), liquid culture; assay type: cell-based; conditions: single component; for inhibition at 0.3 ppm: read-out: Activity (%)
Source text: as §1, §2, §3, §4, §5
The following mixture compositions at the reported concentration (in ppm) in tables C2-3 to C2-5 gave the following disease control in this test Septoria tritici (leaf blotch). Fungicidal activity was evaluated on a 100-0 scale (100=no disease growth; 0=well completely covered by mycelium).

Septoria glycines = assay: Example C3: mixtures against Septoria glycines (brown spot), liquid culture; assay type: cell-based; conditions: single component; for inhibition at 0.1 ppm / inhibition at 0.3 ppm: read-out: Activity (%)
Source text: This occurs whenever the action of an active ingredient combination is greater than the sum of the actions of the individual components. The action to be expected E for a given active ingredient combination obeys the so-called COLBY formula and can be calculated as follows (COLBY, S. R. “Calculating synergistic and antagonistic responses of herbicide combination”. Weeds, Vol. 15, pages 20-22; 1967): • ppm=milligrams of active ingredient (=a.i.) per liter of spray mixture • X=% action by active ingredient A) using p ppm of active ingredient • Y=% action by active ingredient B) using q ppm of active ingredient.
as §2, §3
as §4, with “The nutrient broth containing the fungal spores/mycelia fragments is then added to give an end concentration of the tested compound.” left out
as §5, with “fungus harvested” for “fungus”, “a fresh culture grown on artificial media,” for “cryogenic storage”
Fungicidal activity was evaluated on a 100-0 scale (100=no disease growth; 0=well completely covered by mycelium).

Corynespora cassiicola = assay: Example C5: mixtures against Corynespora cassiicola (target leaf spot), liquid culture; assay type: cell-based; conditions: single component
Source text: as §1, §2, §3, §4
as §5, with “it. The test plates were incubated at 24 C and the inhibition of growth was determined photometrically after 3-4 days at 620 nm.” for “it.”
(§6) The following mixture compositions at the reported concentration (in ppm) in tables C4-3 and C4-4 gave the following disease control in this test (Corynespora cassiicola). Fungicidal activity was evaluated on a 100-0 scale (100=no disease growth; 0=well completely covered by mycelium).

[2] = tested on: Mycosphaerella arachidis syn. Cercospora arachidicola; assay: Example C1: mixtures against Mycosphaerella arachidis syn. Cercospora arachidicola (brown leaf spot), liquid culture; assay type: cell-based; conditions: single component, 100-0 scale (100=no disease growth)
Source text: as §1, §2, §3, §4, §5
as §6, with “C1-3” for “C4-3”, “C1-4” for “C4-4”, “Mycosphaerella arachidis syn. Cercospora arachidicola (Brown leaf spot of peanut).” for “(Corynespora cassiicola).”

[3] = tested on: Puccinia recondita (Brown rust); assay: Example B: comparative biological activity against Puccinia recondita (brown rust), curative, wheat leaf segments; assay type: in vivo; conditions: 8 dpi
Experimental: Method; Wheat leaf segments are placed on agar in multiwell plates (24-well format). The leaf segments are inoculated with a spore suspension of the fungus and sprayed with test solutions 1 day after inoculation. After appropriate incubation the activity of a compound is assessed 8 dpi (days after inoculation) as curative fungicidal activity.
The data are presented as the percentage of disease control of each compound for the biological tests and testing rates described below in table B1.

Phakopsora pachyrhizi = assay: Example D: preventative activity against Phakopsora pachyrhizi on soybean (whole plants sprayed, leaf disks inoculated); assay type: in vivo; conditions: applied alone; for inhibition at 450 g/ha / inhibition at 900 g/ha: Phakopsora pachyrhizi, foliar, read-out: Observed Activity (% of untreated)
Source text: as §1, §2, §3
Whole soybean plants are treated with the recited active ingredients 4 weeks after planting. 1 day after spraying leaf disks are cut from the first trifoliate leaf. Five repetitions at each rate are conducted. The leaf disks are inoculated with Phakopsora pachyrhizi (Asian soybean rust) one day after treatment. Evaluation of the leaf disks is conducted 11 to 14 days after inoculation and the activity is derived from the relation of the treated vs untreated, infested check. (100=no disease, no damage to the leaf, 0=high infestation, leaf damaged heavily). The rates of the active ingredients used are given in the tables as g active ingredient (a.i.)/ha.

[4] = 0.1 ppm, 100-0 scale (100=no disease growth)
[5] = Zymoseptoria tritici, 0.3 ppm, 100-0 scale
[6] = Septoria glycines, 0.1 ppm, 100-0 scale (100=no disease growth)
[7] = Septoria glycines, 0.3 ppm, 100-0 scale (100=no disease growth)
[8] = 0.3 ppm, 100-0 scale (100=no disease growth)

`Cn1cc(C(=O)Nc2cccc3c2[C@@H]2CC[C@H]3C2=C(Cl)Cl)c(C(F)F)n1` (racemic) [benzovindiflupyr] was tested, and the “Activity (%)” value ([1]; 0.1 ppm) was 50%, the “Activity (%)” value (Septoria tritici; [4]) was 50% and the “Activity (%)” value (Septoria tritici; 0.3 ppm, 100-0 scale) was 70%. For the same molecule, the “Activity (%)” value (Septoria glycines; 0.1 ppm) was 70% and the “Activity (%)” value (Septoria glycines; [4]) was 70%.
For `CC(O)(Cn1cncn1)c1ccc(Oc2ccc(Br)cc2)nc1C(F)(F)F` (stereo not drawn) [2-[6-(4-bromophenoxy)-2-(trifluoromethyl)-3-pyridyl]-1-(1,2,4-triazol-1-yl)propan-2-ol], the inhibition at 0.3 ppm ([1]; 0.3 ppm) was 0%.
In the case of `COc1ccnc(C(=O)N[C@@H](C)C(=O)O[C@@H](C)C(c2ccc(F)cc2)c2ccc(F)cc2)c1OC(C)=O` [Florylpicoxamid, reference compound], the “Activity (%)” value ([1]; 0.1 ppm) is reported as 20%, the “Activity (%)” value (Septoria tritici; 0.01 ppm, 100-0 scale) is reported as 70% and the “Activity (%)” value (Septoria tritici; 0.02 ppm, 100-0 scale) is reported as 90%. For the same molecule, the “Activity (%)” value (Septoria glycines; 0.01 ppm) was 0%, the “Activity (%)” value (Septoria glycines; 0.02 ppm) was 0% and the “Activity (%)” value (Corynespora cassiicola; 0.02 ppm) was 0%. For the same molecule, the “Activity (%)” value ([2]; 0.01 ppm) was 50% and the “Activity (%)” value ([2]; 0.02 ppm) was 90%.
In the case of `O=C(Nc1ccccc1F)c1ccc(-c2noc(C(F)(F)F)n2)cc1` [N-(2-fluorophenyl)-4-[5-(trifluoromethyl)-1,2,4-oxadiazol-3-yl]benzamide], the inhibition at 10 ppm (Septoria tritici; Zymoseptoria tritici, 10 ppm, 100-0 scale) is reported as 0%, the inhibition at 20 ppm (Septoria tritici; Zymoseptoria tritici, 20 ppm, 100-0 scale) is reported as 0% and the inhibition at 10 ppm (Corynespora cassiicola; Corynespora cassiicola, 10 ppm) is reported as 0%. It also gave an inhibition at 20 ppm (Corynespora cassiicola; Corynespora cassiicola, 20 ppm) of 0%.
For `CO/C=C(\Oc1cc(C#CC2CCCCC2)ccc1C)C(=O)OC` [Reference Compound Z-1, reference compound], the “control (%)” value ([3]; 20 ppm) was 0%, the “control (%)” value ([3]; 60 ppm) was 0% and the “control (%)” value ([3]; 200 ppm) was 0%.
`CO/C=C(\Oc1cccc(C(C)(C)C)c1)C(=O)OC` [Reference Compound Z-2, reference compound] was tested, and the “control (%)” value ([3]; 20 ppm) was 0%, the “control (%)” value ([3]; 60 ppm) was 0% and the “control (%)” value ([3]; 200 ppm) was 0%.
For `CCC(=O)Oc1c(OC)ccnc1C(=O)N[C@@H](C)C(=O)O[C@@H](C)[C@@H](C)c1ccccc1C` [[(1S,2S)-1-methyl-2-(o-tolyl)propyl] (2S)-2-[(4-methoxy-3-propanoyloxy-pyridine-2-carbonyl)amino]propanoate, reference compound], the inhibition at 0.03 ppm (Septoria tritici; Zymoseptoria tritici, 0.03 ppm, 100-0 scale) was 50%, the inhibition at 0.06 ppm (Septoria tritici; Zymoseptoria tritici, 0.06 ppm, 100-0 scale) was 70% and the inhibition at 0.03 ppm (Septoria glycines; Septoria glycines, 0.03 ppm) was 0%. The inhibition at 0.06 ppm (Septoria glycines; Septoria glycines, 0.06 ppm) was 0%, the inhibition at 0.03 ppm (Corynespora cassiicola; Corynespora cassiicola, 0.03 ppm) was 0% and the inhibition at 0.06 ppm (Corynespora cassiicola; Corynespora cassiicola, 0.06 ppm) was 0%. For the same molecule, the inhibition at 0.03 ppm ([2]; Mycosphaerella arachidis, 0.03 ppm) was 70%.
With `Cc1ccc(C(=O)OCc2ccc(Oc3ccccc3)cc2)c(N)n1` [aminopyrifen] the “Activity (%)” value ([1]; 0.1 ppm) was 20% and the “Activity (%)” value ([1]; 0.3 ppm) was 50%.
With `N#Cc1c(Cl)c(Cl)c(Cl)c(C#N)c1Cl` [chlorothalonil, reference compound] the inhibition at 450 g/ha (Phakopsora pachyrhizi; 450 g/ha) was 8%, the inhibition at 900 g/ha (Phakopsora pachyrhizi) was 7% and the inhibition at 0.1 ppm (Septoria tritici; Zymoseptoria tritici, 0.1 ppm, 100-0 scale (100=no disease growth)) was 20%. For the same molecule, the inhibition at 0.3 ppm (Septoria tritici; [5]) was 50%, the inhibition at 0.1 ppm (Septoria glycines; [6]) was 0% and the inhibition at 0.3 ppm (Septoria glycines; [7]) was 20%. For the same molecule, the inhibition at 0.1 ppm ([2]; Mycosphaerella arachidis, 0.1 ppm) was 20%.
With `COc1ccnc(C(=O)N[C@H]2COC(=O)[C@H](Cc3ccccc3)[C@@H](OC(=O)C(C)C)[C@H](C)OC2=O)c1OCOC(=O)C(C)C` [fenpicoxamid] the “Activity (%)” value ([1]; 0.1 ppm) was 20% and the “Activity (%)” value ([1]; 0.3 ppm) was 70%.
Molecule `O=C1c2ccccc2C(=O)N1SC(Cl)(Cl)Cl` [folpet, reference compound] has an inhibition at 450 g/ha (Phakopsora pachyrhizi; 450 g/ha) of 4%, an inhibition at 900 g/ha (Phakopsora pachyrhizi) of 13% and an inhibition at 0.1 ppm ([1]; 0.1 ppm) of 20%. It also gave an inhibition at 0.3 ppm ([1]; 0.3 ppm) of 70%, an inhibition at 0.3 ppm (Septoria tritici; [5]) of 20% and an inhibition at 0.1 ppm (Septoria glycines; [6]) of 0%. For the same molecule, the inhibition at 0.3 ppm (Septoria glycines; [7]) was 0% and the inhibition at 0.3 ppm ([2]; Mycosphaerella arachidis, 0.3 ppm) was 20%.
In the case of `Cc1nc2c(F)c(F)ccc2cc1Oc1cccc(F)c1C(C)(C)O` [ipflufenoquin, reference compound], the “Activity (%)” value ([1]; 0.1 ppm) is reported as 50%, the “Activity (%)” value (Septoria tritici; [4]) is reported as 20% and the “Activity (%)” value (Septoria tritici; 0.3 ppm, 100-0 scale) is reported as 20%. For the same molecule, the “Activity (%)” value (Septoria glycines; 0.1 ppm) was 0%, the “Activity (%)” value (Septoria glycines; [4]) was 0% and the “Activity (%)” value (Septoria glycines; 0.3 ppm) was 20%. The “Activity (%)” value (Septoria glycines; [8]) was 20% and the “Activity (%)” value ([2]; 0.3 ppm) was 0%.
`CC(O)(Cn1cncn1)c1ccc(Oc2ccc(Cl)cc2)cc1C(F)(F)F` (stereo not drawn) [mefentrifluconazole] was tested, and the “Activity (%)” value ([1]; 0.3 ppm) was 0%.
`OC(Cc1ccccc1Cl)(Cn1nc[nH]c1=S)C1(Cl)CC1` (stereo not drawn) [prothioconazole] gave an inhibition at 0.1 ppm ([1]; 0.1 ppm) of 20% and an inhibition at 0.3 ppm ([1]; 0.3 ppm) of 70%.
In the case of mancozeb [reference compound], the “Observed Activity (% of untreated)” value (Phakopsora pachyrhizi; 225 g/ha) is reported as 27%, the “Observed Activity (% of untreated)” value (Phakopsora pachyrhizi; 450 g/ha) is reported as 39% and the “Activity (%)” value ([1]; 0.1 ppm) is reported as 0%. For the same molecule, the “Activity (%)” value ([1]; 0.3 ppm) was 20%, the “Activity (%)” value (Septoria glycines; [4]) was 0% and the “Activity (%)” value (Septoria glycines; [8]) was 0%. For the same molecule, the “Activity (%)” value ([2]; 0.1 ppm) was 0% and the “Activity (%)” value ([2]; 0.3 ppm) was 0%.
